Converted amounts (≈) assume the structure as drawn.
System: Radical scavenging activity
Experiment: Antioxidant activity assessed as DPPH radical scavenging activity
Type: functional

IC50 | Molecule
25 µg/mL (≈ 44.9 µM) | O=C(O[C@@H]1Cc2c(O[C@@H]3O[C@H](CO)[C@@H](O)[C@H](O)[C@H]3O)cc(O)cc2O[C@@H]1c1ccc(O)c(O)c1)c1ccccc1
17 µg/mL (≈ 43.1 µM) | O=C(O[C@@H]1Cc2c(O)cc(O)cc2O[C@@H]1c1ccc(O)c(O)c1)c1ccccc1
8.5 µg/mL (≈ 29.3 µM) | Oc1cc(O)c2c(c1)O[C@H](c1ccc(O)c(O)c1)[C@H](O)C2 [(-)-EPICATECHIN]
7.5 µg/mL (≈ 27.3 µM) | Oc1ccc([C@H]2Oc3cc(O)cc(O)c3C[C@H]2O)cc1 [EPIAFZELECHIN (2R,3R)(-)]
6.2 µg/mL | VITAMIN E

Molecule | IC50
COc1ccc(O)c(C(C)(C)C)c1.COc1ccc(O)cc1C(C)(C)C [BUTYLATED HYDROXYANISOLE] | 4.5 µg/mL
O=C(O[C@@H]1Cc2c(O)cc(O)cc2O[C@@H]1c1cc(O)c(O)c(O)c1)c1cc(O)c(O)c(O)c1 [EPIGALOCATECHIN GALLATE] | 5.6 µg/mL (≈ 12.2 µM)

From ChEMBL document CHEMBL1150224, “Antioxidant benzoylated flavan-3-ol glycoside from Celastrus orbiculatus” (J Nat Prod, 2001)
